Data taken from patent publication US5554653A, “Inhibitors of HIV protease useful for the treatment of AIDS” (Eli Lilly and Company, priority 1992, dated 1996).
Blank lines part the entries; values can stand above or below the molecule they belong to.

Molecular target: T1, HIV-1 protease (Human immunodeficiency virus type 1 group M subtype B, UniProt P04585)
T1 construct: Purified HIV-1 protease was obtained as described above; made in house; host or cells: E. coli K12 L507/pHP10D (NRRL B-18560)
Assay: biochemical
Format: biochemical

IC8 (read-out: Fluorescence Assay IC8): 1 µg/mL
Molecule: CC(C)(C)NC(=O)c1ccccc1C[C@@H](O)[C@H](Cc1ccccc1)NC(=O)[C@H](Cc1ccccc1)NC=O [Example 40]

IC52 (read-out: Fluorescence Assay IC52): 0.02 µg/mL
Molecule: CC(C)(C)NC(=O)c1ccccc1C[C@@H](O)[C@H](Cc1ccccc1)NC(=O)[C@H](CC(=O)OCc1ccccc1)NC(=O)C(F)(F)F [Example 41, [2R-(2R*,3S*,6S*)]-N-t-Butyl-2-[2-hydroxy-3-phenylmethyl-4-aza-5-oxo-6-N(trifluoromethylcarbonyl)amino-7-benzyloxycarbonyl]heptyl benzamide]

Molecule: [2R-(2R*,3S*,6S*)]-N-t-Butyl-2-[2-hydroxy-3-phenylmethyl-4-aza-5-oxo-6-N(trifluoromethylcarbonyl)amino-7-naphth-2-ylthio]heptyl benzamide [Example 42]
Fluorescence Assay IC50: 0.74 ng/mL
